In general, EC50 refers to the concentration that produces a half-maximal response.

Experimental findings from patent US10131648B2, “Substituted benzothiophenyl derivatives as GPR40 agonists for the treatment of type II diabetes” (Janssen Pharmaceutica NV, priority 2014, dated 2018) are described below.

“And” between values parts separate entries of the source, which are not always exact repeats. Identical values can stand only once.

For test [1], the system named is Male SD rats. Nature of the test: Oral Glucose Tolerance Test. In kind it is in vivo, rat. The note with it: 10 mg/kg, thirty to forty min prior to oGTT (glucose, 2 g/kg, po), blood glucose AUC t=0 to t=120 minutes. How it is done:
Male SD rats (200-250 g) were housed 2 per cage in a temperature-controlled room with a 12-hour light/dark cycle. They were allowed ad libitum access to water and fed with normal rodent chow. The night before the oral glucose tolerance test (oGTT), the rats were transferred to clean cages and fasted overnight. On the morning of the oGTT, the rats were weighed and randomized into groups based on fasted blood glucose and body weight. Rats were dosed with vehicle (0.5% methocel) or compounds (10 mg/kg, po) thirty to forty min prior to the oGTT (glucose, 2 g/kg, po). Blood was collected from the tail vein at 0, 10, 30, 60 and 120 minutes after glucose challenge to measure blood glucose; plasma was used to determine insulin levels. The area under the curve for blood glucose excursion was calculated from t=0 to t=120 minutes. Percent lowering of glucose was calculated from the AUC data with respect to the vehicle-treated group.

For test [2], the target named is human GPR40 (Homo sapiens (Human), UniProt O14842). Put plainly: GPR40 Calcium Flux Assay. The format is cell-based. The note with it: transfected HEK293 cells stably expressing human GPR40; Ca2+ mobilization; mean data; read-out: hGPR40 Ca^2+ Assay EC50. On the technique in general: Calcium assays in cells follow changes in intracellular calcium, usually with a dye or a luminescent sensor.
Sequence of human GPR40 (O14842 whole entry): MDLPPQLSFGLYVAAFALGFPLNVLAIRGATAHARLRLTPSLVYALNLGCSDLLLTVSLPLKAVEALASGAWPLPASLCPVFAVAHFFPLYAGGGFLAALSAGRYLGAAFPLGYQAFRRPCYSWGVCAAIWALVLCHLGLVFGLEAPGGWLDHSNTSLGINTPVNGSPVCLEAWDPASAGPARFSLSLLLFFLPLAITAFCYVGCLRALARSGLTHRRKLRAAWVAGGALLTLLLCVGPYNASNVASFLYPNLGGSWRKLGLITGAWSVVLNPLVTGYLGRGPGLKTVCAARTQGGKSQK

On to `CC#C[C@@H](CC(=O)O)c1ccc(OCc2ccc3scc(-c4ccccc4C)c3c2)cc1` [Cpd 2, (3S)-3-[4-[[3-(2-Methylphenyl)benzo[b]thiophen-5-yl]methoxy]phenyl]hex-4-ynoic acid], for which the “Percent Lowering of Glucose (AUC compound vs. AUC Vehicle)” value in test [1] is 72%. Also, in test [2], the EC50 was 5 nM.
`CC#C[C@@H](CC(=O)O)c1ccc(OCc2ccc3scc(-c4ccc(OCCOC)cc4C)c3c2)cc1` [Cpd 16, (3S)-3-(4-((3-(4-(2-Methoxyethoxy)-2-methylphenyl)benzo[b]thiophen-5-yl)methoxy)phenyl)hex-4-ynoic acid]: the “Percent Lowering of Glucose (AUC compound vs. AUC Vehicle)” value in test [1] turned out to be 76%. The EC50 in test [2] was 5 nM.
`CC#C[C@@H](CC(=O)O)c1ccc(OCc2ccc3scc(-c4ccc(C5CCNCC5)cc4C)c3c2)cc1` [Cpd 96, (3S)-3-(4-((3-(2-Methyl-4-(piperidin-4-yl)phenyl)benzo[b]thiophen-5-yl)methoxy)phenyl)hex-4-ynoic acid]: the EC50 in test [2] amounted to 8 nM.
The same measure, in the same setting: next, `CC#C[C@H](CC(=O)O)c1ccc(OCc2ccc3scc(-c4ccc(OCCOC)cc4C)c3c2)nc1` [Cpd 76, (3S)-3-(6-((3-(4-(2-Methoxyethoxy)-2-methylphenyl)benzo[b]thiophen-5-yl)methoxy)pyridin-3-yl)hex-4-ynoic acid]: 830 nM.
Consider `CC#C[C@@H](CC(=O)O)c1ccc(COc2ccc3scc(-c4ccc(C5CCS(=O)(=O)CC5)cc4C)c3c2)cc1` [Cpd 26, (3S)-3-(4-(((3-(4-(1,1-Dioxidotetrahydro-2H-thiopyran-4-yl)-2-methylphenyl)benzo[b]thiophen-5-yl)oxy)methyl)phenyl)hex-4-ynoic acid], for which the EC50 in test [2] was 18 nM.
The same measure, in the same setting: next, `CC#C[C@@H](CC(=O)O)c1ccc(OCc2ccc3scc(-c4ccccc4C)c3c2)nc1` [Cpd 85, (3R)-3-[6-[[3-(2-Methylphenyl)benzo[b]thiophen-5-yl]methoxy]pyridin-3-yl]hex-4-ynoic acid]: 7 nM and 6 nM.
Same read-out and setting: next, `CC#C[C@@H](CC(=O)O)c1ccc(OCc2ccc3scc(-c4cc(OCCOC)cnc4C)c3c2)cc1` [Cpd 49, (3S)-3-(4-((3-(5-(2-Methoxyethoxy)-2-methylpyridin-3-yl)benzo[b]thiophen-5-yl)methoxy)phenyl)hex-4-ynoic acid]: 9 nM.
On the same count and under the same terms, next, `CC#C[C@@H](CC(=O)O)c1ccc(COc2ccc3scc(-c4ccc(OCCCS(C)(=O)=O)cc4C)c3c2)cc1` [Cpd 24, (3S)-3-(4-(((3-(2-Methyl-4-(3-(methylsulfonyl)propoxy)phenyl)benzo[b]thiophen-5-yl)oxy)methyl)phenyl)hex-4-ynoic acid]: 9 nM.
